Data reported in patent US12378219B2, “Crystalline forms of a MAGL inhibitor” (H. LUNDBECK A/S, priority 2022, dated 2025).

Experiments:
[1] = Dynamic vapor sorption (DVS); assay type: physicochemical; settings: up to 90% RH
Procedure: Example 6: Procedures Used for Dynamic Vapor Sorption (DVS) Measurements
DVS was measured using SMS DVS advantage 01 changing the relative humidity from 0% RH to 95% RH in steps of 10% RH (5% between 90 and 95% RH). 2 cycles were performed using 1-10 mg, starting at 30% RH.

[2] = Relative thermodynamic stability of crystalline forms (DSC, XRPD after heating, slurry); assay type: physicochemical; settings: form 1 converts to form 3 on heating to 150° C. and upon slurry
Procedure: In a vial Compound (I) form 1 (500 mg) were slurried in a 1:1 mixture of MeCN/water at room temperature for 24 hours. A small sample of wet precipitate was analyzed by XRPD showing the diffractogram of FIG. 3.
DSC was measured using a TA-Instruments Discovery-DSC calibrated at 5°/min to give the melting point as onset value. About 2 mg of sample is heated 5°/min under nitrogen flow in a closed pan with a pinhole in the lid.
Thus, Compound (I) Form 3 was formed upon heating of Compound (I) Form 1.

[3] = target: T1, MAGL (Mus musculus, UniProt O35678); experiment: In vivo MAGL inhibition, brain proteomes after oral gavage; settings: 5 mg/kg oral gavage; C57Bl/6J; brain proteomes 4 h after administration
T1 construct: brain proteomes were prepared and analyzed according to previously established methods; from tissue; host or cells: brain of wild-type C57Bl/6J animals
T1 sequence (O35678 1-303): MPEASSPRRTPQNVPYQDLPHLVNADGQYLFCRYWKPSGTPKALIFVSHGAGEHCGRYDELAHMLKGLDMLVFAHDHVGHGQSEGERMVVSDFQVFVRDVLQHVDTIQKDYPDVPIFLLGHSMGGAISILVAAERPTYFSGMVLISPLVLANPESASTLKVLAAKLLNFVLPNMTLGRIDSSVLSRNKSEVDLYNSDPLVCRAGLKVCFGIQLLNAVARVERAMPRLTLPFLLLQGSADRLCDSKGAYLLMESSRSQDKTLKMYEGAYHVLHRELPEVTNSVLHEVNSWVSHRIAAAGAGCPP
Procedure: Compound (I) were administered to wild-type C57Bl/6J by oral gavage in a vehicle of polyethylene glycol. Each animal was sacrificed 4 h following administration and brain proteomes were prepared and analyzed according to previously established methods (See Niphakis, M. J., et al. (2011) ACS Chem. Neurosci. and Long, J. Z., et al. Nat. Chem. Biol. 5:37-44).

[4] = target: T2, MAGL (Homo sapiens, UniProt Q99685); experiment: In vitro competitive activity-based protein profiling (ABPP) in PC3 human cell membrane proteomes; assay type: biochemical; settings: 30 min preincubation at 37° C., read-out: MAGL % inh. 1 μM (human PC3)
T2 construct: measuring fluorescent intensity of gel bands corresponding to MAGL; endogenous in cells; host or cells: PC3 human cells (membrane proteome)
T2 sequence (Q99685 1-303): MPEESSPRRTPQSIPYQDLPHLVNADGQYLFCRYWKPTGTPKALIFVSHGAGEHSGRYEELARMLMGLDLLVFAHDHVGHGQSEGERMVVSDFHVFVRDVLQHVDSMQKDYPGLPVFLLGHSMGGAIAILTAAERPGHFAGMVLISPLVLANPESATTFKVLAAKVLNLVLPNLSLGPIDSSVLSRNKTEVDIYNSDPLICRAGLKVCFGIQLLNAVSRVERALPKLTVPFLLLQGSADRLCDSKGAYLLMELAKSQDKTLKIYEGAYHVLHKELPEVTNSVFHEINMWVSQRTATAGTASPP
Procedure: In Vitro Competitive Activity-Based Protein Profiling
PC3 human cell membrane proteomes (50 μL, 2.0 mg/mL total protein concentration) were preincubated with varying concentrations of Compound (I) at 37° C. After 30 min, the ABPP probe JW912-Bodipy (1.0 μL, 50 μM in DMSO) was added and the mixture was incubated for 30 min at room temperature. Reactions were quenched with SDS loading buffer (15 μL—4×) and run on SDS-PAGE. Following gel imaging, serine hydrolase activity was determined by measuring fluorescent intensity of gel bands corresponding to MAGL using ImageJ 1.43u software. Intensities were converted to percent enzyme activity by normalizing to DMSO controls. IC50 values were determined by fitting percent enzyme activities to a non-linear regression, 4-parameter, sigmoidal dose response function in Prism GraphPad.

Structure (SMILES)	water uptake (DVS) [1]	thermodynamic stability relative to the other crystalline form [2]	MAGL % inh. 5 mg/kg (mouse) [3]	inhibition at 1 µM [4]
O=C(Nc1cccnn1)[C@H]1CC12CCN(C(=O)OC(C(F)(F)F)C(F)(F)F)CC2 [Compound (I) form 1, 1,1,1,3,3,3-Hexafluoropropan-2-yl (S)-1-(pyridazin-3-ylcarbamoyl)-6-azaspiro[2.5]octane-6-carboxylate form 1]	1.4 wt %			
O=C(Nc1cccnn1)[C@H]1CC12CCN(C(=O)OC(C(F)(F)F)C(F)(F)F)CC2 [Compound (I) form 3, 1,1,1,3,3,3-Hexafluoropropan-2-yl (S)-1-(pyridazin-3-ylcarbamoyl)-6-azaspiro[2.5]octane-6-carboxylate form 3]	around 0.1 wt %	thermodynamically more stable than Compound (I) Form 1		
O=C(Nc1cccnn1)[C@H]1CC12CCN(C(=O)OC(C(F)(F)F)C(F)(F)F)CC2 [Compound (I), 1,1,1,3,3,3-Hexafluoropropan-2-yl (S)-1-(pyridazin-3-ylcarbamoyl)-6-azaspiro[2.5]octane-6-carboxylate]			100%	100%
